# Measurements taken from patent US9539236B2, “Pharmaceutical composition for preventing or treating cancer” (Medicinal Bioconvergence Research Center, priority 2013, dated 2017).
# What was measured:
# Type in all cases: cell-based
# [1] = system: WI-26 human diploid fibroblast cell line from embryonic lung tissue; assay: MTT assay, cytotoxicity on normal cell line WI-26; details: WI-26 cells, compared with a control, FIG. 4
# Description: In order to evaluate cytotoxicity of C11 on a normal cell line, WI-26, which is a human diploid fibroblast cell line from embryonic lung tissue, was treated with C11, and then cell viability was measured by MTT assay and compared with a control.
# [2] = system: lung cancer cell line NCI-H460; assay: MTT assay, cytotoxicity on lung cancer cells (H460); details: NCI-H460, serum free RPMI, 0.04 uM, 0.4 uM, 4 uM and 40 uM, 48 hours, FIG. 3
# Description: A lung cancer cell line NCI-H460 was cultured in an RPMI medium (HyQ RPMI-1640, Hyclone) containing 10% fetal bovine serum and 1% penicillin/streptomycin for 48 hours, and then transferred to a 96-well plate. After 12 hours, the medium was exchanged with the serum free RPMI medium, and then was treated with the compound of chemical formula 1 with 0.04 uM, 0.4 uM, 4 uM, and 40 uM. After 48 hours, MTT assay was conducted.
# AIMP2-DX2 mRNA = assay: RT-PCR of AIMP2-DX2 mRNA level in H460 cells treated with C11; details: different concentrations of C11, RT-PCR, FIG. 1
# Description: (§1) The present inventors conducted western blotting and RT-PCR using AIMP2 antibody and AIMP2-DX2 antibody (purchased from Neomics (Korea)) to verify the effect of the compound of chemical formula 1 on AIMP2-DX2 activity.
# H460 cells were treated with C11 with different concentrations, and then total-RNA was isolated according to the protocol of the manufacturer (Qiagen). The cells were collected, and mixed with 350 μl of a lysis buffer, which was then homogenized using a homogenizer or a syringe. After 350 μl of 70% ethanol was added, the lysate was shook above and below several times, and loaded on the column, followed by centrifuge at 13,000 RPM for 15 seconds. The column was washed twice with a washing buffer, and then RNA was eluted with 40 μl of RNase-free DW.
# For reverse transcription, 1 μg of the isolated RNA was used as AIMP2-specific primers (SEQ ID NO: 2 and SEQ ID NO: 3) and DX2-specific primers (SEQ ID NO: 4 and SEQ ID NO: 5). After the reverse transcription, the product was diluted with 3-fold DW, and then 1 μl was used for 30 μl of PCR reaction including 0.5 μl dNTP (each 2.5 mM), 0.5 μl of the AIMP2 specific primer set (SEQ ID NO: 2 and SEQ ID NO: 3) and DX2 specific primers (SEQ ID NO: 4 and SEQ ID NO: 5) (each 10 pM), 1.5 μl of DMSO, and 0.1 μl of Taq polymerase (5 U/μl).
# AIMP2-DX2 = biological target: T1, AIMP2-DX2 (Homo sapiens, UniProt Q13155); assay: Western blotting of AIMP2-DX2 protein level in H460 cells; details: FIG. 2
# T1 construct: the protein was extracted from the cells using a RIPA buffer containing protease; endogenous in cells; host or cells: H460
# T1 sequence (Q13155 1-251 isoform Q13155-2): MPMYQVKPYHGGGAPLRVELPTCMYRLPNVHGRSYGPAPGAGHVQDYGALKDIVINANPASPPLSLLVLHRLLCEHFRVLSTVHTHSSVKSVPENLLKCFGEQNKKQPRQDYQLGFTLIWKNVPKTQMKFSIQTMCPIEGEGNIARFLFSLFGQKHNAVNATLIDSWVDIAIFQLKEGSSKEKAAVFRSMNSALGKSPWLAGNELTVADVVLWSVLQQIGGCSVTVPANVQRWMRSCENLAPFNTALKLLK
# Description: as §1
# (§2) A western blotting test was conducted to investigate the effect of C11 on the AIMP2-DX2 protein level.
# (§3) H460 cells were treated with the compound, C11, for a predetermined period of time, and the protein was extracted from the cells using a RIPA buffer containing protease. The protein was isolated using 10 to 12% SDS-PAGE, and then immunoblotting was conducted using an ECL system as a specific antibody.
# AIMP2 = assay: Western blotting of AIMP2 protein expression in H460 cells; details: FIG. 2
# Description: as §1, §2, §3
smiles,measurement,setting,value
"Cc1ccc(S(=O)(=O)N[C@@H](CC(C)C)C(=O)N2CCOCCOCCOCC2)cc1 [C11, 1,4,7-Trioxa-10-azacyclododecane, 10-[4-methyl-2-[[(4-methylphenyl)sulfonyl]amino]-1-oxopentyl]]","cytotoxicity on normal cells (cell viability, MTT)",[1],cytotoxicity was not observed
same,lung cancer cell line viability (MTT),[2],"killed by the compound, C11, in a concentration dependent manner"
same,effect on the mRNA level of AIMP2-DX2,AIMP2-DX2 mRNA,no effect
same,effect on the AIMP2-DX2 protein level,AIMP2-DX2,reduced the AIMP2-DX2 protein level in a concentration dependent manner
same,effect on the AIMP2 protein expression,AIMP2,no effect
